Assay results as given in US20230183237A1, “COMPETITIVE AND NONCOMPETITIVE INHIBITORS OF THE MUSCARINIC ACETYLCHOLINE RECEPTOR M5” (Vanderbilt University, priority 2020, published 2023).

The compounds below were run against T1, hM5 (Homo sapiens, UniProt P08912) (assay: Calcium mobilization concentration-response (IC50 vs EC80 acetylcholine), CHO hM5). Details: CELL LINE hM5; calcium mobilization, EC80 acetylcholine addition; read-out: IC50.
T1 construct: expressed in transfected cells
T1 sequence (P08912 1-532): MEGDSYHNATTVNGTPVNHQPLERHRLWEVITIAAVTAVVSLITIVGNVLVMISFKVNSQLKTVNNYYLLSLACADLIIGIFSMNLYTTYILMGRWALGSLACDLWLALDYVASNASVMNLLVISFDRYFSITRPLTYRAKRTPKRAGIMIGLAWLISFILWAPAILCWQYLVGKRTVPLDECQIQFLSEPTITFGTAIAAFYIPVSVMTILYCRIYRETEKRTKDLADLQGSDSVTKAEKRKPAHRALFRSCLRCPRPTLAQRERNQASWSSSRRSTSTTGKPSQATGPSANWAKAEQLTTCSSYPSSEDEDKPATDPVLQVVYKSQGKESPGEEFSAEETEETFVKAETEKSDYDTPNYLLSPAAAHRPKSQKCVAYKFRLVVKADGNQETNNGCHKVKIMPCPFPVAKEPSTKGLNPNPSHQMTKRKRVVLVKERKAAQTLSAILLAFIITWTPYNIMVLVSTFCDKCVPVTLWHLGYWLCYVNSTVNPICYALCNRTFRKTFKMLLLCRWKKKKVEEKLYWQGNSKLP
Type: cell-based
How it was run: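 IC50 values derive from percent maximal acetylcholine response after an EC80 ACh addition, measured as kinetic calcium fluorescence (static ratio, max−min). Test compounds were added 140 s before agonist. Cells: stable hM5-CHO in HEPES-buffered HBSS with 2.5 mM probenecid, pH 7.4; ≥3 independent triplicate determinations.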

| SMILES | IC50 [µM] |
| --- | --- |
| O=S(=O)(c1ccc2c(c1)CCO2)N1CC=C(c2cc3ncnn3cc2Cl)CC1 [Compound 140, 6-chloro-7-(1-((2,3-dihydrobenzofuran-5-yl)sulfonyl)-1,2,3,6-tetrahydropyridin-4-yl)-[1,2,4]triazolo[1,5-a]pyridine] | > 10 |
| Cc1cc2ncnn2cc1C1CCN(S(=O)(=O)c2cnc3c(c2)CCO3)CC1 [Compound 141, 5-((4-(7-methyl-[1,2,4]triazolo[1,5-a]pyridin-6-yl)piperidin-1-yl)sulfonyl)-2,3-dihydrofuro[2,3-b]pyridine] | 1.4 |
| Cc1c(S(=O)(=O)N2CC=C(c3cc4ncnn4cc3Cl)CC2)cnn1C [Compound 142, 6-chloro-7-(1-((1,5-dimethyl-1H-pyrazol-4-yl)sulfonyl)-1,2,3,6-tetrahydropyridin-4-yl)-[1,2,4]triazolo[1,5-a]pyridine] | 0.253 |
| Cc1cc2ncnn2cc1C1CCN(S(=O)(=O)c2cn(C(F)F)nc2C)CC1 [Compound 144, 6-(1-((1-(difluoromethyl)-3-methyl-1H-pyrazol-4-yl)sulfonyl)piperidin-4-yl)-7-methyl-[1,2,4]triazolo[1,5-a]pyridine] | 1.2 |
| Cc1cc(S(=O)(=O)N2CCC(c3cn4ncnc4cc3C)CC2)c(C)s1 [Compound 145, 6-(1-((2,5-dimethylthiophen-3-yl)sulfonyl)piperidin-4-yl)-7-methyl-[1,2,4]triazolo[1,5-a]pyridine] | 0.989 |
| Cc1cc2ncnn2cc1C1CCN(S(=O)(=O)c2cc(C(F)(F)F)nn2C)CC1 [Compound 146, 7-methyl-6-(1-((1-methyl-3-(trifluoromethyl)-1H-pyrazol-5-yl)sulfonyl)piperidin-4-yl)-[1,2,4]triazolo[1,5-a]pyridine] | > 10 |
| C=Cc1cc2ncnn2cc1C1=CCN(S(=O)(=O)c2cnn(C)c2C)CC1 [Compound 147, 6-(1-((1,5-dimethyl-1H-pyrazol-4-yl)sulfonyl)-1,2,3,6-tetrahydropyridin-4-yl)-7-vinyl-[1,2,4]triazolo[1,5-a]pyridine] | 0.051 |
| Cc1c(S(=O)(=O)N2CC=C(c3cn4ncnc4cc3C3CC3)CC2)cnn1C [Compound 148, 7-cyclopropyl-6-(1-((1,5-dimethyl-1H-pyrazol-4-yl)sulfonyl)-1,2,3,6-tetrahydropyridin-4-yl)-[1,2,4]triazolo[1,5-a]pyridine] | 0.786 |
| Cc1cc2ncnn2cc1C1CCN(S(=O)(=O)c2c3ccccc3nn2C)CC1 [Compound 150, 7-methyl-6-(1-((2-methyl-2H-indazol-3-yl)sulfonyl)piperidin-4-yl)-[1,2,4]triazolo[1,5-a]pyridine] | 0.325 |
| Cc1cc2ncnn2cc1C1CCN(S(=O)(=O)c2cnn(C(F)F)c2C)CC1 [Compound 151, 6-(1-((1-(difluoromethyl)-5-methyl-1H-pyrazol-4-yl)sulfonyl)piperidin-4-yl)-7-methyl-[1,2,4]triazolo[1,5-a]pyridine] | 0.062 |
| Cc1cc2ncnn2cc1C1CCN(S(=O)(=O)c2cccc3c2OCCO3)CC1 [Compound 152, 6-(1-((2,3-dihydrobenzo[b]dioxin-5-yl)sulfonyl)piperidin-4-yl)-7-methyl-[1,2,4]triazolo[1,5-a]pyridine] | 0.117 |
| Cc1cc2ncnn2cc1C1CCN(S(=O)(=O)c2ccc(F)cc2)CC1 [Compound 153, 6-(1-((4-fluorophenyl)sulfonyl)piperidin-4-yl)-7-methyl-[1,2,4]triazolo[1,5-a]pyridine] | 4.1 |
| Cc1cc2ncnn2cc1C1CCN(S(=O)(=O)c2c[nH]cn2)CC1 [Compound 155, 6-(1-((1H-imidazol-4-yl)sulfonyl)piperidin-4-yl)-7-methyl-[1,2,4]triazolo[1,5-a]pyridine] | > 10 |
| Cc1cc2ncnn2cc1C1CCN(S(=O)(=O)c2cnn(C)c2C(F)F)CC1 [Compound 156, 6-(1-((5-(difluoromethyl)-1-methyl-1H-pyrazol-4-yl)sulfonyl)piperidin-4-yl)-7-methyl-[1,2,4]triazolo[1,5-a]pyridine] | 0.0091 |
| Cc1cc2ncnn2cc1C1CCN(S(=O)(=O)c2c(C)n[nH]c2C)CC1 [Compound 157, 6-(1-((3,5-dimethyl-1H-pyrazol-4-yl)sulfonyl)piperidin-4-yl)-7-methyl-[1,2,4]triazolo[1,5-a]pyridine] | 2.9 |
| Cc1c(S(=O)(=O)N2CCC(c3cn4ncnc4cc3F)CC2)cnn1C [Compound 161, 6-(1-((1,5-dimethyl-1H-pyrazol-4-yl)sulfonyl)piperidin-4-yl)-7-fluoro-[1,2,4]triazolo[1,5-a]pyridine] | 0.125 |
| Cc1cc2ncnn2cc1C1CCN(S(=O)(=O)c2cnn(C)c2C(F)(F)F)CC1 [Compound 162, 7-methyl-6-(1-((1-methyl-5-(trifluoromethyl)-1H-pyrazol-4-yl)sulfonyl)piperidin-4-yl)-[1,2,4]triazolo[1,5-a]pyridine] | 0.096 |
| Cc1cc2ncnn2nc1C1CCN(S(=O)(=O)c2ccc3c(c2)CCO3)CC1 [Compound 164, 6-(1-((2,3-dihydrobenzofuran-5-yl)sulfonyl)piperidin-4-yl)-7-methyl-[1,2,4]triazolo[1,5-b]pyridazine] | 5.9 |
| Cc1cc2ncnn2nc1C1CCN(S(=O)(=O)c2cnn(C)c2C)CC1 [Compound 165, 6-(1-((1,5-dimethyl-1H-pyrazol-4-yl)sulfonyl)piperidin-4-yl)-7-methyl-[1,2,4]triazolo[1,5-b]pyridazine] | 0.06 |
| Cc1cc2ncnn2nc1C1CCN(S(=O)(=O)c2ccc3c(c2)N(C)CCO3)CC1 [Compound 166, 4-methyl-6-((4-(7-methyl-[1,2,4]triazolo[1,5-b]pyridazin-6-yl)piperidin-1-yl)sulfonyl)-3,4-dihydro-2H-benzo[b][1,4]oxazine] | 1.6 |
| Cc1cc2ncnn2nc1C1=CCN(S(=O)(=O)c2ccc3c(c2)CCO3)CC1 [Compound 167, 6-(1-((2,3-dihydrobenzofuran-5-yl)sulfonyl)-1,2,3,6-tetrahydropyridin-4-yl)-7-methyl-[1,2,4]triazolo[1,5-b]pyridazine] | > 10 |
| Cc1cc2ncnn2cc1C1CCN(S(=O)(=O)c2cccc3nonc23)CC1 [Compound 168, 4-((4-(7-methyl-[1,2,4]triazolo[1,5-a]pyridin-6-yl)piperidin-1-yl)sulfonyl)benzo[c][1,2,5]oxadiazole] | 0.821 |
| Cc1cc2ncnn2nc1C1=CCN(S(=O)(=O)c2cnn(C)c2C)CC1 [Compound 169, 6-(1-((1,5-dimethyl-1H-pyrazol-4-yl)sulfonyl)-1,2,3,6-tetrahydropyridin-4-yl)-7-methyl-[1,2,4]triazolo[1,5-b]pyridazine] | 0.974 |
| Cc1cc2ncnn2nc1C1=CCN(S(=O)(=O)c2ccc3c(c2)N(C)CCO3)CC1 [Compound 170, 4-methyl-6-((4-(7-methyl-[1,2,4]triazolo[1,5-b]pyridazin-6-yl)-3,6-dihydropyridin-1(2H)-yl)sulfonyl)-3,4-dihydro-H-benzo[b][1,4]oxazine] | > 10 |
| Cc1cc2ncnn2cc1C1(F)CCN(S(=O)(=O)c2cnn(C)c2C)CC1 [Compound 173, 6-(1-((1,5-dimethyl-1H-pyrazol-4-yl)sulfonyl)-4-fluoropiperidin-4-yl)-7-methyl-[1,2,4]triazolo[1,5-a]pyridine] | 0.082 |
| Cc1cc2ncnn2cc1C1CCN(S(=O)(=O)c2ccc3c(cnn3C)c2)CC1 [Compound 175, 7-methyl-6-(1-((1-methyl-1H-indazol-5-yl)sulfonyl)piperidin-4-yl)-[1,2,4]triazoto[1,5-a]pyridine] | > 10 |
